Laboratory results reported in US8173635B2, “Kinase inhibitors” (Vertex Pharmaceuticals Incorporated, priority 2007, dated 2012).

Key:
Assay type in all cases: biochemical
[1] = biological target: PKC alpha kinase (Homo sapiens, UniProt P17252); experiment: PKC alpha kinase inhibition, coupled-enzyme NADH absorbance assay (Ki); details: 130 μM ATP, 4.5 nM PKC alpha, 30° C.; read-out: Ki PKC alpha
[2] = biological target: PKC delta kinase (Homo sapiens, UniProt Q05655); experiment: PKC delta kinase inhibition, coupled-enzyme NADH absorbance assay (Ki); details: 150 μM ATP, 46 nM PKC delta, 30° C.; read-out: Ki PKC delta
Outline: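 Assay buffer was 100 mM HEPES pH 7.5, 10 mM MgCl2, 25 mM NaCl, 0.1 mM EDTA, 0.01% Brij. Enzyme buffer was equilibrated with compound in DMSO for 10 min at 30 °C. Ki values were derived by non-linear regression of initial rate data.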

[3] = biological target: PKC theta kinase (Homo sapiens, UniProt Q04759); experiment: PKC theta kinase inhibition, coupled-enzyme NADH absorbance assay (Ki); details: 240 μM ATP, 18 nM PKC theta, 30° C.; read-out: Ki PKC theta
Outline: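 Enzyme and compound equilibrated 10 min at 30 °C before reaction in HEPES pH 7.5 buffer with MgCl2, NaCl, EDTA and Brij. Activity tracked as NADH loss at 340 nm through a coupled system. Initial-rate data fitted by non-linear regression to give Ki.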

Sequence of PKC delta kinase (Q05655 whole entry): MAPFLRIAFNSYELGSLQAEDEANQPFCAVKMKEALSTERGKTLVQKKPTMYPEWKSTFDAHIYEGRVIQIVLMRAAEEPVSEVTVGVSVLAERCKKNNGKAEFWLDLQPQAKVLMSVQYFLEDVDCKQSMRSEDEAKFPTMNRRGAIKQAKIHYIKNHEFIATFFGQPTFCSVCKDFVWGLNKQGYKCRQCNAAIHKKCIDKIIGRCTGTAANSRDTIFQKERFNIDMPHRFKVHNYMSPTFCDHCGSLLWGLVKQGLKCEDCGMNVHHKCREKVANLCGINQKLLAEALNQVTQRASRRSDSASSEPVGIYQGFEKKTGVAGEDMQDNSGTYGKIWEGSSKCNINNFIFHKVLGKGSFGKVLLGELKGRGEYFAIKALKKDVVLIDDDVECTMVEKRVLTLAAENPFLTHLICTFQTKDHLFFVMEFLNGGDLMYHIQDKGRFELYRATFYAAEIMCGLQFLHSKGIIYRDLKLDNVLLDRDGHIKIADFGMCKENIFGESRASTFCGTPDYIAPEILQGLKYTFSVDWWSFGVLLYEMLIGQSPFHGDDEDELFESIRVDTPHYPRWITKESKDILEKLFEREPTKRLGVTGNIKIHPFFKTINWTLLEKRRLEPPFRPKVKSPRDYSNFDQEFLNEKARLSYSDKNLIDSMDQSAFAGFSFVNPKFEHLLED
Sequence of PKC theta kinase (Q04759 whole entry): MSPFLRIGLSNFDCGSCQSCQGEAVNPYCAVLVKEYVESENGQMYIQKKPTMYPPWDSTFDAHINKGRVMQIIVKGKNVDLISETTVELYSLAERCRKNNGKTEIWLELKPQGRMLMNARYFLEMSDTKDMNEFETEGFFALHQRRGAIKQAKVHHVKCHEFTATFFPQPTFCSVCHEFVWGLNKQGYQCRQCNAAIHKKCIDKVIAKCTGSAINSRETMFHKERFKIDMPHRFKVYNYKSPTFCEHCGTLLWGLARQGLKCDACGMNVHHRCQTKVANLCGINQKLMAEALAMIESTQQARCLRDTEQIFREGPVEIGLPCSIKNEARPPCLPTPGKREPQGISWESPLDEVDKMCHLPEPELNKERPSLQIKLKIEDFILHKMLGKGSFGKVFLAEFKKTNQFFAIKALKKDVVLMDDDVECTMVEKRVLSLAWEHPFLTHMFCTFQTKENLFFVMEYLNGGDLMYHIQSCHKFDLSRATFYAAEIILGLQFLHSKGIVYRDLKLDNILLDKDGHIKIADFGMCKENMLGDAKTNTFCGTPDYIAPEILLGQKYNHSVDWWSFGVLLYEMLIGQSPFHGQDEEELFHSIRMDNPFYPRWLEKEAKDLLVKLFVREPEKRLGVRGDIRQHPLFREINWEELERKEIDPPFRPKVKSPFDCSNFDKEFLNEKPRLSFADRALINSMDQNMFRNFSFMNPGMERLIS

Row | Ki [1] [µM] | Ki [2] [µM] | Ki [3] [µM] | SMILES
1 | > 1.2 | > 2 | > 0.7 | CCC(C)(CC#N)c1cc(-c2ccnc3[nH]ncc23)cc(C(F)(F)CCC2CCCC2)c1 (stereo not drawn) [Compound 239]
2 | < 2.8 | < 0.5 | < 0.05 | N#CC1(c2cc(CCCN)cc(-c3ccnc4[nH]ncc34)c2)CC1 [Compound 301]
3 | > 1.2 | > 2 | > 0.7 | CCC(C)(C#N)c1cc(-c2ccnc3[nH]ncc23)cc(C(F)(F)CCC2CCCC2)c1 (stereo not drawn) [Compound 117]
4 | < 0.5 | < 2.8 | < 0.05 | CCC(C)(CN)c1cc(CCCF)cc(-c2ccnc3[nH]ncc23)c1 (stereo not drawn) [Compound 160]
5 | < 0.5 | > 2 | < 0.05 | CCC(C)(C#N)c1cc(-c2ccnc3[nH]ncc23)cc(C(F)F)c1 (stereo not drawn) [Compound 110]
6 | < 0.5 | < 0.5 | < 0.05 | N#C[C@]1(c2cccc(-c3ccnc4[nH]ncc34)c2)C[C@H](N)C1 [Compound 229]
7 | < 2.8 | < 2.8 | < 0.5 | CCC(C)(C#N)c1cc(Cl)cc(-c2ccnc3[nH]ncc23)c1 (stereo not drawn) [Compound 87]
8 | > 1.2 | > 2 | > 0.7 | CCC(C)(C#N)c1cc(-c2ccnc3[nH]ncc23)cc(C(F)(F)CC2CCCCC2)c1 (stereo not drawn) [Compound 119]
9 | > 1.2 | > 1.2 | < 0.05 | CC(C)(N)CCc1cc(-c2ccnc3[nH]nc(C(F)(F)F)c23)cc(C2(C#N)CC2)c1 [Compound 317]
10 | < 2.8 | < 0.5 | < 0.05 | CC(C)(CN)c1cccc(-c2ccnc3[nH]ncc23)c1 [Compound 31, 2-(3-(1H-pyrazolo[3,4-b]pyridin-4-yl)phenyl)-2-methylpropan-1-amine]
11 | < 2.8 | < 2.8 | < 0.5 | N#CC(CCN)c1cccc(-c2ccnc3[nH]ncc23)c1 (stereo not drawn) [Compound 225]
12 | > 1.2 | > 2 | > 0.7 | CCC(C)(C#N)c1cc(/C=C/C#N)cc(-c2ccnc3[nH]ncc23)c1 (stereo not drawn) [Compound 124]
13 | < 2.8 | < 2.8 | < 0.5 | CCC(C)(C#N)c1cccc(-c2ccnc3[nH]ncc23)c1 (stereo not drawn) [Compound 64, 2-(3-(1H-pyrazolo[3,4-b]pyridin-4-yl)phenyl)-2-methylbutanenitrile]
14 | > 1.2 | > 2 | < 0.5 | CCC(C)(C#N)c1cc(C=O)cc(-c2ccnc3[nH]ncc23)c1 (stereo not drawn) [Compound 120]
15 | < 0.5 | < 0.5 | < 0.05 | COCCC(C)(CN)c1cccc(-c2ccnc3[nH]nc(C(F)(F)F)c23)c1 (stereo not drawn) [Compound 285]
16 | < 2.8 | > 2.8 | < 2.8 | CCCC(C)(C#N)c1cccc(-c2ccnc3[nH]ncc23)c1 (stereo not drawn) [Compound 69]
17 | < 2.8 | < 2.8 | < 0.05 | N#CC1(c2cc(-c3ccnc4[nH]ncc34)cc(C(F)(F)CN)c2)CC1 [Compound 122]
18 | < 2.8 | < 2.8 | < 0.5 | CCC(C)(C#N)c1cc(Br)cc(-c2ccnc3[nH]ncc23)c1 (stereo not drawn) [Compound 30]
19 | < 2.8 | < 0.5 | < 0.05 | NCC1(c2cccc(-c3ccnc4[nH]ncc34)c2)CCCC1 [Compound 50]
20 | < 0.5 | < 0.5 | < 0.05 | CCC(CN)c1cccc(-c2ccnc3[nH]ncc23)c1 (stereo not drawn) [Compound 232]
21 | > 1.2 | > 1.2 | > 0.7 | NC(CC1CCCCC1)c1cccc(-c2ccnc3[nH]nc(C(F)(F)F)c23)c1 (stereo not drawn) [Compound 298]
22 | < 0.5 | < 0.5 | < 0.05 | CCC(C)(CN)c1cc(-c2ccnc3[nH]ncc23)cc(C(C)(F)F)c1 (stereo not drawn) [Compound 165]

Row | Ki [1] [µM] | Ki [2] [µM] | Ki [3] [µM] | SMILES
23 | < 0.5 | < 0.05 | < 0.05 | CCC(C)(CO)c1cccc(-c2ccnc3[nH]nc(C(F)(F)F)c23)c1 (stereo not drawn) [Compound 318]
24 | < 0.5 | < 0.5 | < 0.05 | N#CC1(c2cc(-c3ccnc4[nH]ncc34)cc(C(F)(F)CCN)c2)CC1 [Compound 330]
25 | > 1.2 | > 1.2 | > 0.7 | NCc1cccc(-c2ccnc3[nH]nc(C4CC4)c23)c1 [Compound 269]
26 | > 1.2 | < 2.8 | < 0.5 | NCC1(c2cccc(-c3ccnc4[nH]ncc34)c2)COC1 [Compound 233]
27 | < 2.8 | < 0.5 | < 0.05 | OCC1(c2cccc(-c3ccnc4[nH]nc(C(F)(F)F)c34)c2)CC1 [Compound 290]
28 | > 2.8 | > 2.8 | < 0.5 | CCCc1cc(-c2ccnc3[nH]ncc23)cc(C2(CN)CCCC2)c1 [Compound 147]
29 | < 2.8 | < 2.8 | < 0.05 | N#CC1(c2cc(-c3ccnc4[nH]ncc34)cc(C(F)(F)C3CNC3)c2)CC1 [Compound 328]
30 | < 2.8 | > 2 | < 0.5 | CCC(C)(CN)c1cc(CCC(F)F)cc(-c2ccnc3[nH]ncc23)c1 (stereo not drawn) [Compound 161]
31 | < 2.8 | > 2 | < 0.5 | CCSc1cc(-c2ccnc3[nH]ncc23)cc(C(C)(C#N)CC)c1 (stereo not drawn) [Compound 102]
32 | < 0.05 | < 0.05 | < 0.05 | CCC(C)(CN)c1cc(F)cc(-c2ccnc3[nH]nc(Cl)c23)c1 (stereo not drawn) [Compound 258]
33 | < 0.05 | < 0.05 | < 0.05 | C#CCC(C)(CN)c1cccc(-c2ccnc3[nH]ncc23)c1 (stereo not drawn) [Compound 135]
34 | < 2.8 | < 2.8 | < 0.5 | C=CCC(C)(C#N)c1cccc(-c2ccnc3[nH]ncc23)c1 (stereo not drawn) [Compound 90]
35 | < 2.8 | > 2 | < 0.5 | CCCc1cc(-c2ccnc3[nH]ncc23)cc(C(C)(C)CC#N)c1 [Compound 218]
36 | < 0.5 | > 1.2 | < 0.05 | CCC1(c2cc(C)cc(-c3ccnc4[nH]nc(C(F)(F)F)c34)c2)CNC(=O)O1 (stereo not drawn) [Compound 292]
37 | > 1.2 | > 1.2 | > 0.7 | CC(O)c1cccc(-c2ccnc3[nH]ncc23)c1 (stereo not drawn) [Compound 244]
38 | < 2.8 | < 2.8 | < 0.5 | CCc1cc(-c2ccnc3[nH]ncc23)cc(C(C)(C)CN)c1 [Compound 44]
39 | < 2.8 | < 2.8 | < 0.05 | CC(C)(C#N)c1cc(Br)cc(-c2ccnc3[nH]ncc23)c1 [Compound 18]
40 | > 1.2 | > 1.2 | > 0.7 | N#CC1(c2cccc(-c3ccnc4[nH]ncc34)c2)CC(F)(F)C1 [Compound 226]
41 | < 0.5 | < 0.5 | < 0.05 | CCC(C)(CN)c1cc(-c2ccnc3[nH]ncc23)cc(C(F)(F)F)c1 (stereo not drawn) [Compound 139]
42 | > 1.2 | > 1.2 | > 0.7 | OCc1cccc(-c2ccnc3[nH]ncc23)c1 [Compound 322]
43 | < 2.8 | < 0.5 | < 0.05 | COCCC(C)(CN)c1cccc(-c2ccnc3[nH]ncc23)c1 (stereo not drawn) [Compound 146]

Row | SMILES | Ki [1] [µM] | Ki [2] [µM] | Ki [3] [µM]
44 | Cc1cc(-c2ccnc3[nH]ncc23)cc(C2(CN)CCC2)c1 [Compound 145] | < 2.8 | < 2.8 | < 0.05
45 | N#CC1(c2cc(CCN)cc(-c3ccnc4[nH]ncc34)c2)CC1 [Compound 128] | > 1.2 | > 2 | < 0.5
